# Assay results published in patent publication US9284366B2, “Anti-acetylated huntingtin antibodies and uses therof” (The General Hospital Corporation, priority 2006, dated 2016).
# Experiments:
# [1] = system: total Htt and acetyl-Htt level in Neuro2a cells; experiment: Proteasome and autophagy inhibitors in Neuro2a cells transfected with Htt590-97Q (western blot); format: cell-based; details: lactacystin 10 μM or 3-methyladenine 10 mM for 12 hrs
# Protocol: Cell Culture and Transfection. Neuro2a, STHdh^Q7/Q7, and COS-7 cells were transfected using Lipofectamine 2000. For HDAC inhibition, TSA (1 μM) and NAM (5 mM) were applied 6 hrs and 16 hrs, respectively, prior to harvest. Unless indicated otherwise, cells were harvested 24 hrs after transfection. For the experiments with proteasome and autophagy inhibitors, Neuro2a cells were treated with lactacystin (10 μM) or 3-methyladenine (10 mM) for 12 hrs. For assessment of LC3 conversion, immortalized striatal cells (STHdh^Q7/Q7) were cultured as described (29), transfected for 48 hrs and treated with TSA (4 μM) and NAM (5 mM) 15 hrs prior to harvest.
# To examine which of these pathways may be responsible for clearance of acetylated Htt polypeptide, Neuro2a cells were transfected with Htt590-97Q and treated with inhibitors of proteasome or autophagy. […] In order to further examine whether acetylated Htt polypeptide leads to activation of macroautophagy, LC3 conversion was assessed (17, 18). LC3, a mammalian homologue of yeast Atg8, is a diffusely distributed protein that upon activation by mammalian Atg7 undergoes posttranslational modification resulting in the product LC3-II, which firmly associates with the autophagosomal membrane. The amount of LC3-II, which migrates faster than LC3-I on SDS-PAGE, provides a reliable measure of autophagic activity (17). In order to assess autophagic activity in relation to Htt acetylation, immortalized striatal cells (STHdh^Q7/Q7) were transfected with Htt590-97Q or acetylation-resistant Htt590-97Q-KR, treated with TSA and NAM and analyzed by western blotting with anti-LC3 antibody (FIG. 3B).
# Drosophila model of HD = details: pharmacological inhibition of HDAC; cited from earlier work
# C. elegans neurons = details: dose-dependent manner; cited from earlier work
structure (smiles),measurement,setting,value
Cn1cnc(N)c2ncnc1-2 [3-methyladenine],acetyl-Htt level,[1],accumulation
"O=C(CCCCCCC(=O)Nc1ccccc1)NO [SAHA, Suberoylanilide hydroxamic acid]",lethality and degeneration in Drosophila model of HD,Drosophila model of HD,rescue the lethality and degeneration
"CC(/C=C/C(=O)NO)=C\[C@@H](C)C(=O)c1ccc(N(C)C)cc1 [TSA, trichostatin A]",degeneration of C. elegans neurons induced by mutant Htt,C. elegans neurons,reduced the degeneration
CC(=O)N[C@@H](CSC(=O)[C@]1([C@@H](O)C(C)C)NC(=O)[C@H](C)[C@@H]1O)C(=O)O [lactacystin],acetyl-Htt level,[1],no significant effect
same,total Htt level,[1],no significant effect
